# Laboratory results from patent US9956176B2, “Compositions and methods for treating ewing sarcoma” (priority 2014, dated 2018).
# d = 2'-deoxy (DNA); m = 2'-O-methyl
# Experiments:
# [1] = test system: FEZF1-AS1; assay: FEZF1-AS1 expression in A673 cells; format: cell-based, human
# [2] = test system: human Acute Lymphoblastic Leukemia (REH cells); assay: REH-Luc leukemia xenograft, tumor burden by Xenogen camera; format: in vivo, mouse
# From the text: (§1) To complete the mouse efficacy and safety studies we injected NOG mice with 6×10^6 luciferase transfected human Acute Lymphoblastic Leukemia (REH cells). This special transgenic type of mouse has deletions in the gene encoding the interleukin 2 receptor γ (IL2Rγ) and has added genes expressing human iL3, GM-CSF and SCF. To prevent rejection of injected human leukemia cells, the NOG mice have a complete lack of B, T, and NK cells, and a deficiency of cytokine signaling. The mice were separated into six groups. Group 1 received only buffer treatment; group 2-untargeted, unloaded HPLN; group 3-untargeted, HPLN/Dox (2 mg Dox/kg); group 4-(targeted) anti-CD-19/HPLN/Dox (2 mg Dox/kg); group 5-Doxil (2 mg Dox/kg); and group 6-(free) doxorubicin (2 mg Dox/kg).
# (§2) Upon injection of the leukemia cells, Xenogen camera images were done once per week and used to assess both tumor cell distribution and quantitative tumor burden. After 10 days post leukemia cell injection, our targeted nanoparticle drug (anti-CD-19/HPLN/Dox) or control particles or drugs, were administered to the mice, in once a week dosages. The amount of drug given was based on the active substance (doxorubicin), not on total nanoparticle mass in each formulation (except for group 2, these mice received an equivalent HPLN dose in unloaded form). […]
# [3] = format: in vivo; conditions: once a week IV
# From the text: as §1, §2
# [4] = target: T1, RNA polymerase II (Homo sapiens, UniProt P24928); assay: inhibition of FEZF1-AS1 transcription; format: cell-based
# T1 construct: endogenous in cells; host or cells: Ewing sarcoma cells
# From the text: FEZF1-AS1 is located on human chromosome 7q31.32 on the positive strand and overlaps the first two exons of protein-coding gene, FEZF1, which lies on the opposite strand. To characterize this gene in Ewing sarcoma, we performed Northern blot analysis using different biotin-labelled probes that confirmed the 2.6 kb transcript was predominantly expressed in Ewing sarcoma. […] RNA-sequencing of two Ewing sarcoma cell lines, CHLA-9 and CHLA-10, identified multiple isoforms of the transcript, some of which included introns and/or extended beyond exon 7. CHLA-9 and CHLA-10 are Ewing sarcoma cell lines from the same patient. CHLA-9 is from the primary tumor and CHLA-10 is from the metastatic tumor. We validated some of the isoforms by PCR and Sanger sequencing. To confirm the annotation of FEZF1-AS1 as a non-coding RNA, we used the coding potential calculator algorithm that assigned a low score of −1.2 compared to scores of 5 and above for coding genes such as FLI1, and NR0B1. FEZF1-AS1 transcription was inhibited by alpha-amanitin but not by RNA Polymerase III inhibitor, thus confirming that RNA polymerase II transcribes the lncRNA. […] Thus, lncRNA FEZF1-AS1 is a highly expressed gene is Ewing sarcoma.
compound,measurement,setting,value
"5-mG*mU*mG*mU*mG*T*G*T*G*T*C*T*G*C*T*mU*mG*mU*mU*mU-3′ (antisense GUGUGTGTGTCTGCTUGUUU; sugars from the 5' end m5 d10 m5, all phosphorothioate, methylation of C not given here) [FA7]",knockdown levels,"[1]; A673, 48 hours",about 50%
same,FEZF1-AS1 levels reduced to,"[1]; A673, nucleofection, 24 hours",80%
COc1cccc2c1C(=O)c1c(O)c3c(c(O)c1C2=O)C[C@@](O)(C(=O)CO)C[C@@H]3O[C@H]1C[C@H](N)[C@H](O)[C@H](C)O1 [doxorubicin],tumor growth / tumor reduction,"[2]; 2 mg Dox/kg once a week from day 10, IV, FIG. 4",significant tumor reduction
same,tumor size and burden,"[2]; 2 mg Dox/kg, day 35, FIG. 8",markedly less
same,"tolerability, acute toxic reactions",[3],lose weight and appeared sickly
alpha-amanitin,FEZF1-AS1 transcription,[4],inhibited
